Literature values in US20090099301A1, “MOLECULAR IMPRINTINGS FOR RECOGNITION IN AQUEOUS MEDIA, METHODS FOR PREPARING SAME AND USES THEREOF” (POLYINTELL, priority 2006, published 2009).

Conditions: basic medium (pH 11)

solubility in water: insoluble
SMILES: CC(C)NCC(O)COc1cccc2ccccc12 (stereo not shown) [propranolol]
